{
  "source": "paper PMC4207539",
  "about": "(Journal of Medicinal Chemistry, 2014)",
  "key": {"[1]": {"tested_on": "VEEV (TC-83)"}, "[2]": {"tested_on": "VEEV TC-83 strain", "type": "cell-based, Venezuelan equine encephalitis virus"}, "[3]": {"tested_on": "VEEV TrD strain", "type": "cell-based, Venezuelan equine encephalitis virus"}, "[4]": {"target": "CYP2C19 (Homo sapiens, UniProt P33261)", "sequence (P33261 whole entry)": "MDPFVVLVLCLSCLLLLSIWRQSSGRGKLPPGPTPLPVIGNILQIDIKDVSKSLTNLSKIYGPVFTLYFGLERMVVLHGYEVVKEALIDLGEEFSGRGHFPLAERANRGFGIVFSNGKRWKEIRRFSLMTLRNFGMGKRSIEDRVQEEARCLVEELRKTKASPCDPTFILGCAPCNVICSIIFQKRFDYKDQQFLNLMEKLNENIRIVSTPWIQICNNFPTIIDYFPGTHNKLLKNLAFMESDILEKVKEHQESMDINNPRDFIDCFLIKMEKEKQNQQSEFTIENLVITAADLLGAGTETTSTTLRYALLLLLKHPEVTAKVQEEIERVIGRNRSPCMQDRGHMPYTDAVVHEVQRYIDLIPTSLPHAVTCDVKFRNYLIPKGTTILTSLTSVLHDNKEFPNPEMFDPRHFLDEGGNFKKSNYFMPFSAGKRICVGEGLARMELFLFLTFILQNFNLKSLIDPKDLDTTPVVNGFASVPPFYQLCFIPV", "experiment": "in vitro", "conditions": "pH 7.4"}, "[5]": {"experiment": "physchem"}, "[6]": {"tested_on": "VEEV (TC-83)", "conditions": "mouse, in vivo"}, "[7]": {"target": "CYP2C9 (Homo sapiens, UniProt P11712)", "sequence (P11712 whole entry)": "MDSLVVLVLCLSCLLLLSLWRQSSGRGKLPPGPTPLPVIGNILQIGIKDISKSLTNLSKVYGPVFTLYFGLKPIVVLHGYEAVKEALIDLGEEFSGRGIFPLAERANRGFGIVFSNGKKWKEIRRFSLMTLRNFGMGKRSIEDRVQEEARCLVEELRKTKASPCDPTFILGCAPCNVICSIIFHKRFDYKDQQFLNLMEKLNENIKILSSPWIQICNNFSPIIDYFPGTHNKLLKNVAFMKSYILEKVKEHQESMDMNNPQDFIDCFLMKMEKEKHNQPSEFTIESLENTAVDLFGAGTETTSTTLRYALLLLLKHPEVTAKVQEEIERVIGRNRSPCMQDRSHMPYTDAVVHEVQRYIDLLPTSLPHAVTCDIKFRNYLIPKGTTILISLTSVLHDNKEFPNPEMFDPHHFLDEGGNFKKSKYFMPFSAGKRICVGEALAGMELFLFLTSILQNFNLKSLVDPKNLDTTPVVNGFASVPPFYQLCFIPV", "experiment": "in vitro", "conditions": "pH 7.4"}, "[8]": {"target": "CYP3A4 (Homo sapiens, UniProt P08684)", "sequence (P08684 whole entry)": "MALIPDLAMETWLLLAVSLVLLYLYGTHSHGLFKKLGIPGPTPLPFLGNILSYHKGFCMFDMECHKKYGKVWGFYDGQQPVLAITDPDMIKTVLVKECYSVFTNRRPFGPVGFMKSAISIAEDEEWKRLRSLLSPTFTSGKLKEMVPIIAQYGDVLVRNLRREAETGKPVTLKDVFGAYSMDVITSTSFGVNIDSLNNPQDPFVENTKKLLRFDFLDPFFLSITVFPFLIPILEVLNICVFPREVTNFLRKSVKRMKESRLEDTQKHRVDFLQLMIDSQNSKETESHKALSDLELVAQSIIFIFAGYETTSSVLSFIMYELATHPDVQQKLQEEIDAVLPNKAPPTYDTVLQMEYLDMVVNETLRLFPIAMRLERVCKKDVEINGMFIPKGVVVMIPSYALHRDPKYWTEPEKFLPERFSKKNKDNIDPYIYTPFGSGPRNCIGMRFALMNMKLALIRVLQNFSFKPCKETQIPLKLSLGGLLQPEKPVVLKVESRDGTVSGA", "experiment": "in vitro", "conditions": "pH 7.4"}, "[9]": {"target": "CYP2D6 (Homo sapiens, UniProt P10635)", "sequence (P10635 whole entry)": "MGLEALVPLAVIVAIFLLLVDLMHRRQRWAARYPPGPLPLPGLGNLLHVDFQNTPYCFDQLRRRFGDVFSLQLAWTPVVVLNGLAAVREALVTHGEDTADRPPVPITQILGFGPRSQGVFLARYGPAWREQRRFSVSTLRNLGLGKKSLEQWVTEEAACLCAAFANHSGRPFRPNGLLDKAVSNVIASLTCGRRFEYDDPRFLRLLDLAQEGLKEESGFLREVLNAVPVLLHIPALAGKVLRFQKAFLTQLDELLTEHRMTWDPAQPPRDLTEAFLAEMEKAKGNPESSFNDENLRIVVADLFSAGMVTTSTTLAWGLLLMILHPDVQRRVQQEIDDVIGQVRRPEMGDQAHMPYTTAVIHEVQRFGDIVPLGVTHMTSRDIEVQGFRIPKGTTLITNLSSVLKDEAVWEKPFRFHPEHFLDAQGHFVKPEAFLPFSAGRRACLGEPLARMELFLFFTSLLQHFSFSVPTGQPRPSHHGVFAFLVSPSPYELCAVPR", "experiment": "in vitro", "conditions": "pH 7.4"}, "[10]": {"tested_on": "panel of 67 GPCRs, ion channels and transporters", "type": "binding", "conditions": "10 µM"}, "[11]": {"conditions": "mouse, in vivo, ip"}, "[12]": {"tested_on": "Fa2N-4 cells", "conditions": "human"}, "[13]": {"conditions": "male, in vivo"}, "[14]": {"tested_on": "VEEV (TC-83)", "experiment": "microbe, parasite or virus in culture", "conditions": "Venezuelan equine encephalitis virus, read-out: EC50, several VEEV strains"}},
  "note": "Values joined by “and” are separate entries in the source; they are usually repeats but may differ in a detail not shown here. Identical values can stand only once.",
  "data": [
    {"smiles": "COc1ccc(NC(=O)c2cc([N+](=O)[O-])ccc2/N=C2\\CN(C)CCN2C)cc1", "note": "[compound 51, (E)-2-((1,4-Dimethylpiperazin-2-ylidene)amino)-N-(4-methoxyphenyl)-5-nitrobenzamide]", "values": [
      {"measurement": "lipophilic ligand efficiency, LLE", "setting": "[1]", "result": 4.1},
      {"measurement": "titer reduction, TC-83 strain (fold)", "setting": "[2]", "result": "7.2 log (16 million fold)"},
      {"measurement": "titer reduction, TC-83 strain (log)", "setting": "[2]", "result": "7.2 log (16 million fold)"},
      {"measurement": "titer reduction, TC-83 strain, dose response, EC90", "setting": "[2]", "result": 0.17, "unit": "µM"},
      {"measurement": "titer reduction, TrD strain", "setting": "[3]", "result": "no measurable viral replication"}
    ]},
    {"smiles": "CN1CCN(C)/C(=N/c2ccc([N+](=O)[O-])cc2C(=O)Nc2ccccc2)C1", "note": "[compound 45, (E)-2-((1,4-Dimethylpiperazin-2-ylidene)amino)-5-nitro-N-phenylbenzamide]", "values": [
      {"measurement": "inhibition at 10 µM", "setting": "[4]", "result": "< 30", "unit": "%"},
      {"measurement": "solubility", "setting": "[5]; aqueous solubility, VEEV CPE assay medium", "result": 13.1, "unit": "µg/mL"},
      {"measurement": "solubility", "setting": "[5]; pH 7.4, aqueous solubility, 1× PBS, pH 7.4", "result": 110, "unit": "µM"},
      {"measurement": "percent survival", "setting": "[6]", "result": 71, "unit": "%"},
      {"measurement": "inhibition at 10 µM", "setting": "[7]", "result": "< 30", "unit": "%"},
      {"measurement": "inhibition at 10 µM", "setting": "[8]", "result": "< 30", "unit": "%"},
      {"measurement": "inhibition at 10 µM", "setting": "[9]", "result": "< 30", "unit": "%"},
      {"measurement": "inhibition of all other targets in the collection", "setting": "[10]", "result": "≤ 36", "unit": "%"},
      {"measurement": "titer reduction, TC-83 strain (fold)", "setting": "[2]", "result": "5.8 log (630 000 fold) and 7.2 log (16 million fold)"},
      {"measurement": "titer reduction, TC-83 strain, dose response, EC90", "setting": "[2]", "result": 0.17, "unit": "µM"},
      {"measurement": "titer reduction, TrD strain", "setting": "[3]", "result": "no measurable viral replication"},
      {"measurement": "toxicity (body weight loss, lethargy, hunched posture, ruffled fur)", "setting": "[11]", "result": "no apparent toxicity or adverse effects were observed"},
      {"measurement": "hepatocyte toxicity (Fa2N-4), LD50", "setting": "[12]", "result": "> 25", "unit": "µM"},
      {"measurement": "plasma and brain concentration over in vitro CPE assay EC50", "setting": "[13]; C57Bl/6, mouse", "result": "> 10", "unit": "fold"},
      {"measurement": "brain average concentration ± standard deviation", "setting": "[13]; C57Bl/6J, mouse", "result": "0.35 ± 0.06", "unit": "µM"},
      {"measurement": "EC50", "setting": "[14]", "result": "0.02 to 0.04", "unit": "µM"}
    ]},
    {"smiles": "CCN1CCN(Cc2nc3ccc([N+](=O)[O-])cc3c(=O)n2-c2ccccc2F)CC1", "note": "[compound 1, 2-((4-Ethylpiperazin-1-yl)methyl)-3-(2-fluorophenyl)-6-nitroquinazolin-4(3H)-one]", "values": [
      {"measurement": "titer reduction, TC-83 strain (log)", "setting": "[2]", "result": "0.5 log (3-fold)"}
    ]}
  ]
}
